Measurements published in patent publication US20250129081A1, “METHANOGEN INHIBITORS” (PASTORAL GREENHOUSE GAS RESEARCH LIMITED, priority 2021, published 2025).

System: rumen fluid
Test: Rumen in vitro (RIV) assay: methane production from incubated rumen fluid
Type: cell-based, cattle
Settings: for RIV % methane reduction: 60 mL rumen fluid-buffer mixture
Protocol: The compounds of the present invention were initially screened for activity using an in vitro fully automated incubation system for the measurement of total gas production and gas composition (methane and hydrogen). The system used is described in detail in the paper by Muetzel et al. (2014; Animal Feed Science and Technology 196, 1-11). The system in this specification is referred to as the rumen in vitro system or RIV. The RIV system provides a relatively simple tool for determining the rate and production of methane and also whether the rate and production of methane is inhibited or reduced by a particular compound or feed. Rumen in vitro assays use rumen fluid from donor animals (typically either sheep or cattle) which is typically combined with a buffer and then incubated in sealed fermentation vessels at 39° C. for either 24 or 48 h. These assays systems have been well-characterised and used by the scientific community over the last two decades (Rymer et al. 2005). The system that has been used here to characterise the effects of inhibitors on methane production and gas production, and the formation of H2, was described by Muetzel et al. (2014). Rumen in vitro assay systems reflect what can occur in the rumen in vivo, but only short-term, due to their short incubation times (typically not exceeding 48 h) which is limited by its buffering capacity and the fact that it is a closed system. Stock solutions of inhibitors were re-suspended in dimethylformamide (DMF) at concentrations 1000-fold higher than the highest used for the assays. Any further dilutions were also prepared using DMF. The total amount of inhibitor solution added to the rumen fluid-buffer mixture (60 mL) was 60 μl. Incubations used 60 ml of medium containing 12 ml of filtered rumen fluid and 48 ml of buffer in serum bottles for 24-48 h, essentially as described by Muetzel et al. (2014). Two fistulated cattle were used as donor animals for rumen fluid and treatments were incubated in duplicate bottles. Sets of duplicate incubation vials that contained ryegrass (with rumen fluid-buffer mixture), and ryegrass with 30 μM bromoethanesulfonate (BES) were also incubated as negative and positive controls, respectively. One experiment consists of 2 replicates of an inhibitor at any one concentration run at the same time, and a run can contain up to 32 bottle, including positive (30 µM BES) and negative (no inhibitor added) controls. Compound 1, for example, was tested using the 60 mL rumen in vitro assay system at 30 μM, 10 μM, 2 μM and 1 μM final concentrations and compared to a positive control with 30 μM BES. […] Compound 3 was very active in the RIV and only the lower concentrations of 2 μM and 1 μM were measured.

Cn1c(=O)c2cc3c(=O)n(CCOc4no[n+]([O-])c4S(=O)(=O)c4ccccc4)c(=O)c3cc2c1=O [Compound 3]
RIV % methane reduction (1 μM compound): 49.0%
RIV % methane reduction (2 μM compound): 80.4%
activity in the RIV (in words) (only 2 μM and 1 μM measured): very active

O=c1c2cc3c(=O)n(CO[N+](=O)[O-])c(=O)c3cc2c(=O)n1CCOc1no[n+]([O-])c1S(=O)(=O)c1ccccc1 [Compound 2, 4-(2-(6-((nitrooxy)methyl)-1,3,5,7-tetraoxo-3,5,6,7-tetrahydropyrrolo[3,4-f]isoindol-2(1H)-yl)ethoxy)-3-(phenylsulfonyl)-1,2,5-oxadiazole 2-oxide]
RIV % methane reduction (1 μM compound): 7.2%
RIV % methane reduction (2 μM compound): 30.6%
RIV % methane reduction (10 μM compound): 56.1%
RIV % methane reduction (30 μM compound): 85.9%

O=c1[nH]c(=O)c2cc3c(=O)n(CCOc4no[n+]([O-])c4S(=O)(=O)c4ccccc4)c(=O)c3cc12 [Compound 1, 3-(phenylsulfonyl)-4-(2-(1,3,5,7-tetraoxo-3,5,6,7-tetrahydropyrrolo[3,4-f]isoindol-2(1H)-yl)ethoxy)-1,2,5-oxadiazole 2-oxide]
RIV % methane reduction (1 μM compound): 8.9%
RIV % methane reduction (2 μM compound): 23.3%
RIV % methane reduction (10 μM compound): 67.8%
RIV % methane reduction (30 μM compound): 87.1%
inhibition at 2 µM (Bos taurus, 2 μM, at 18 h, 60 mL rumen in vitro assay system, read-out: inhibition level (methane)): ~23.3%
inhibition at 30 µM (Bos taurus, 30 μM, at 18 h, 60 mL rumen in vitro assay system, read-out: inhibition level (methane)): ~87.1%
